These results are taken from US11542266B1, “Substituted piperidines as BTK inhibitors” (HAISCO PHARMACEUTICALS PTE. LTD., priority 2019, dated 2023).

Where a name gives a salt, the structure may show the parent alone.

For the first assay, the system named is Mino cells. Put plainly: Inhibition of cell proliferation, Mino cells (Cell Viability Assay, 72 h).
Settings: not given
It is filed as cell-based, human. The method, then: SU-DHL-4, Mino, and SU-DHL-6 cells, in the culture medium of RPMI1640+10% FBS, were cultured in an incubator at 37° C. under 5% CO2. Cells were plated in a 96-well plate. Specifically, SU-DHL-4 cells were at 20000/well, Mino and SU-DHL-6 cells were at 5000/well, with 90 μL/well. 10 μL of the compounds at different concentrations were added to each well. There were 3 replicate wells for each concentration, and the last column, added with DMSO, was used as a vehicle control group. The cultures were continued for 72 hours at 37° C. under 5% CO2. After 72 hours, 100 μL of detection reagent (Cell Viability Assay, Promega, G7573) was added to each well, and the cultures were uniformly mixed for 2 minutes, and incubated at room temperature for 10 minutes. The fluorescence signal value was measured with a microplate reader (PHERAstar FSX). The IC50 value of the compound on cell proliferation inhibition was calculated using Origin 9.2 software, and the inhibition rate at the highest concentration of the compound (Max inhi. %) was calculated according to formula (1). Max inhi. %=(1-T72 administration/T72 vehicle)×100 Formula (1).
In general, IC50 refers to the concentration needed to halve the response being measured. A lower IC50 goes with higher potency. `Nc1ncnc2c1c(-c1ccc(Oc3ccccc3)cc1)nn2C1CCN(C2CCN(C3CN(c4ccc5c(c4)C(=O)N(C4CCC(=O)NC4=O)C5=O)C3)CC2F)CC1` (stereo not drawn) [Compound 49-1, cis-5-(3-(4-(4-amino-3-(4-phenoxyphenyl)-1H-pyrazolo[3,4-d]pyrimidin-1-yl)-3′-fluoro-[1,4′-bipiperidin]-1′-yl)azetidin-1-yl)-2-(2,6-dioxopiperidin-3-yl)isoindoline-1,3-dione-P1] came in with a concentration for half-maximal inhibition (IC50) of 113 nM. In turn, `Nc1ncnc2c1c(-c1ccc(Oc3ccccc3)cc1)nn2C1CCN(C2CCN(C3CN(c4ccc5c(c4)C(=O)N(C4CCC(=O)NC4=O)C5=O)C3)CC2F)CC1` (stereo not drawn) [Compound 46-1, trans-5-(3-(4-(4-amino-3-(4-phenoxyphenyl)-1H-pyrazolo[3,4-d]pyrimidin-1-yl)-3′-fluoro-[1,4′-bipiperidin]-1′-yl)azetidin-1-yl)-2-(2,6-dioxopiperidin-3-yl)isoindoline-1,3-dione-P1] showed an IC50 of 27 nM.

The same assay, now with this note: Homo sapiens.
Consider `Nc1ncnc2c1c(-c1ccc(Oc3ccccc3)cc1)nn2C1CCN(C2CN(C3CC4(CCN(c5ccc6c(c5)C(=O)N(C5CCC(=O)NC5=O)C6=O)CC4)C3)C2)CC1` (stereo not shown) [Compound 62, 5-(2-(3-(4-(4-amino-3-(4-phenoxyphenyl)-1H-pyrazolo[3,4-d]pyrimidin-1-yl)piperidin-1-yl)azetidin-1-yl)-7-azaspiro[3.5]nonan-7-yl)-2-(2,6-dioxopiperidin-3-yl)isoindoline-1,3-dione], for which the concentration for half-maximal inhibition (IC50) amounted to 38 nM.

In the case of `Nc1ncnc2c1c(-c1ccc(Oc3ccccc3)cc1)nn2C1CCN(C2C[C@@H]3CN(C4CN(c5ccc6c(c5)C(=O)N(C5CCC(=O)NC5=O)C6=O)C4)C[C@@H]3C2)CC1` (stereo partly drawn) [Compound 59, 5-(3-((3aR,6aS)-5-(4-(4-amino-3-(4-phenoxyphenyl)-1H-pyrazolo[3,4-d]pyrimidin-1-yl)piperidin-1-yl)hexahydrocyclopenta[c]pyrrol-2(1H)-yl)azetidin-1-yl)-2-(2,6-dioxopiperidin-3-yl)isoindoline-1,3-dione], the half-maximal inhibitory concentration (IC50) came to 501 nM. Against the preceding compound, the IC50 is about 13-fold higher. `Nc1ncnc2c1c(-c1ccc(Oc3ccccc3)cc1)nn2C1CCN(C2CN(C3CCN(c4ccc5c(c4)C(=O)N(C4CCC(=O)NC4=O)C5=O)CC3)C2)CC1` (stereo not shown) [Compound 23, 5-[4-[3-[4-[4-amino-3-(4-phenoxyphenyl)pyrazolo[3,4-d]pyrimidin-1-yl]-1-piperidyl]azetidin-1-yl]-1-piperidyl]-2-(2,6-dioxo-3-piperidyl)isoindoline-1,3-dione] returned an IC50 of 295 nM. `Nc1ncnc2c1c(-c1ccc(Oc3ccccc3)cc1)nn2C1CCN(C2CC3(CCN(C4CN(c5ccc6c(c5)C(=O)N(C5CCC(=O)NC5=O)C6=O)C4)CC3)C2)CC1` (stereo not shown) [Compound 50, 5-(3-(2-(4-(4-amino-3-(4-phenoxyphenyl)-1H-pyrazolo[3,4-d]pyrimidin-1-yl)piperidin-1-yl)-7-azaspiro[3.5]nonan-7-yl)azetidin-1-yl)-2-(2,6-dioxopiperidin-3-yl)isoindoline-1,3-dione] came in with a half-inhibitory concentration (IC50) of 112 nM. With `Nc1ncnc2c1c(-c1ccc(Oc3ccccc3)cc1)nn2C1CCN(C2CN(C3CN(C4CN(c5ccc6c(c5)C(=O)N(C5CCC(=O)NC5=O)C6=O)C4)C3)C2)CC1` (stereo not shown) [Compound 60, 5-(3-(4-(4-amino-3-(4-phenoxyphenyl)-1H-pyrazolo[3,4-d]pyrimidin-1-yl)piperidin-1-yl)-[1,3′:1′,3″-terazetidin]-1H-yl)-2-(2,6-dioxopiperidin-3-yl)isoindoline-1,3-dione], the IC50 turned out to be 165 nM. `Nc1ncnc2c1c(-c1ccc(Oc3ccccc3)cc1)nn2C1CCN(C2CN(C3CCC4(CC3)CN(c3ccc5c(c3)C(=O)N(C3CCC(=O)NC3=O)C5=O)C4)C2)CC1` (stereo not shown) [Compound 54, 5-(7-(3-(4-(4-amino-3-(4-phenoxyphenyl)-1H-pyrazolo[3,4-d]pyrimidin-1-yl)piperidin-1-yl)azetidin-1-yl)-2-azaspiro[3.5]nonan-2-yl)-2-(2,6-dioxopiperidin-3-yl)isoindoline-1,3-dione]: the IC50 worked out at 200 nM.

In the case of `Nc1ncnc2c1c(-c1ccc(Oc3ccccc3)cc1)nn2C1CCN(C2CN(C3C[C@@H]4CN(c5ccc6c(c5)C(=O)N(C5CCC(=O)NC5=O)C6=O)C[C@@H]4C3)C2)CC1` (stereo partly drawn) [Compound 61, 5-((3aR,6aS)-5-(3-(4-(4-amino-3-(4-phenoxyphenyl)-1H-pyrazolo[3,4-d]pyrimidin-1-yl)piperidin-1-yl)azetidin-1-yl)hexahydrocyclopenta[c]pyrrol-2(1H)-yl)-2-(2,6-dioxopiperidin-3-yl)isoindoline-1,3-dione], the 50% inhibitory concentration (IC50) was 100 nM. Same read-out and setting: the same measure for `Nc1ncnc2c1c(-c1ccc(Oc3ccccc3)cc1)nn2C1CCN(C2CCN(C3CN(c4ccc5c(c4)CN(C4CCC(=O)NC4=O)C5=O)C3)CC2)CC1` (stereo not shown) [Compound 25, 3-[5-[3-[4-[4-[4-amino-3-(4-phenoxyphenyl)pyrazolo[3,4-d]pyrimidin-1-yl]-1-piperidyl]-1-piperidyl]azetidin-1-yl]-1-oxo-isoindolin-2-yl]piperidine-2,6-dione]: 282 nM.

Still in this assay, the particulars now being: inhibition rate at the highest concentration of the compound.
For the compound `NC(=O)c1c(-c2ccc(Oc3ccccc3)cc2)nn2c1NCC[C@H]2C1CCN(C2CCN(C3CN(c4ccc5c(c4)C(=O)N(C4CCC(=O)NC4=O)C5=O)C3)CC2)CC1` (stereo partly drawn) [Compound 30, (7S)-7-[1-[1-[1-[2-(2,6-dioxo-3-piperidyl)-1,3-dioxo-isoindolin-5-yl]azetidin-3-yl]-4-piperidyl]-4-piperidyl]-2-(4-phenoxyphenyl)-4,5,6,7-tetrahydropyrazolo[1,5-a]pyrimidine-3-carboxamide trifluoroacetate], the “Mino Max inhi. %” value is 82.5%. `Nc1ncnc2c1c(-c1ccc(Oc3ccccc3)cc1)nn2C1CCN(C2CN(C3CN(c4ccc5c(c4)C(=O)N(C4CCC(=O)NC4=O)C5=O)C3)C2)C1` (stereo not shown) [Compound 29, 5-(3-(3-(4-amino-3-(4-phenoxyphenyl)-1H-pyrazolo[3,4-d]pyrimidin-1-yl)pyrrolidin-1-yl)-[1,3′-biazetidin]-1′-yl)-2-(2,6-dioxopiperidin-3-yl)isoindoline-1,3-dione trifluoroacetate]: the “Mino Max inhi. %” value is recorded as 71.2%. The same measure, in the same setting: the same measure for `NC(=O)c1c(-c2ccc(Oc3ccccc3)cc2)nn2c1NCC[C@H]2C1CCN(C2CN(C3CN(c4ccc5c(c4)C(=O)N(C4CCC(=O)NC4=O)C5=O)C3)C2)CC1` (stereo partly drawn) [Compound 31, (7S)-7-[1-[1-[1-[2-(2,6-dioxo-3-piperidyl)-1,3-dioxo-isoindolin-5-yl]azetidin-3-yl]azetidin-3-yl]-4-piperidyl]-2-(4-phenoxyphenyl)-4,5,6,7-tetrahydropyrazolo[1,5-a]pyrimidine-3-carboxamide trifluoroacetate]: 78.3%; for `Nc1ncnc2c1c(-c1ccc(Oc3ccccc3)cc1)nn2C1CCN(C2CCC3(CC2)CN(C2CN(c4ccc5c(c4)C(=O)N(C4CCC(=O)NC4=O)C5=O)C2)C3)CC1` (stereo not shown) [Compound 56, 5-(3-(7-(4-(4-amino-3-(4-phenoxyphenyl)-1H-pyrazolo[3,4-d]pyrimidin-1-yl)piperidin-1-yl)-2-azaspiro[3.5]nonan-2-yl)azetidin-1-yl)-2-(2,6-dioxopiperidin-3-yl)isoindoline-1,3-dione]: 99.9%. As to `Nc1ncnc2c1c(-c1ccc(Oc3ccccc3)cc1)nn2C1CCN(C2CC3CCC(C2)N3c2ccc3c(c2)C(=O)N(C2CCC(=O)NC2=O)C3=O)CC1` (stereo not shown) [Compound 58, 5-(3-(4-(4-amino-3-(4-phenoxyphenyl)-1H-pyrazolo[3,4-d]pyrimidin-1-yl)piperidin-1-yl)-8-azabicyclo[3.2.1]octan-8-yl)-2-(2,6-dioxopiperidin-3-yl)isoindoline-1,3-dione], the “Mino Max inhi. %” value was determined as 95.3%. Regarding `Nc1ncnc2c1c(-c1ccc(Oc3ccccc3)cc1)nn2C1CCN(C2CN(C3CCN(C4CCN(c5ccc6c(c5)C(=O)N(C5CCC(=O)NC5=O)C6=O)CC4)CC3)C2)CC1` (stereo not shown) [Compound 15, 5-[4-[4-[3-[4-[4-amino-3-(4-phenoxyphenyl)pyrazolo[3,4-d]pyrimidin-1-yl]-1-piperidyl]azetidin-1-yl]-1-piperidyl]-1-piperidyl]-2-(2,6-dioxo-3-piperidyl)isoindoline-1,3-dione], the “Mino Max inhi. %” value is on record as 99.8%. On to `Nc1ncnc2c1c(-c1ccc(Oc3ccccc3)cc1)nn2C1CCN(C2C[C@@H]3CN(C4CC5(CCN(c6ccc7c(c6)C(=O)N(C6CCC(=O)NC6=O)C7=O)CC5)C4)C[C@@H]3C2)CC1` (stereo partly drawn) [Compound 52, 5-(2-((3aR,6aS)-5-(4-(4-amino-3-(4-phenoxyphenyl)-1H-pyrazolo[3,4-d]pyrimidin-1-yl)piperidin-1-yl)hexahydrocyclopenta[c]pyrrol-2(1H)-yl)-7-azaspiro[3.5]nonan-7-yl)-2-(2,6-dioxopiperidin-3-yl)isoindoline-1,3-dione], for which the “Mino Max inhi. %” value is 99.7%. In the case of `Nc1ncnc2c1c(-c1ccc(Oc3ccccc3)cc1)nn2C1CCN(C2CC3CCC(C2)N3C2CN(c3ccc4c(c3)C(=O)N(C3CCC(=O)NC3=O)C4=O)C2)CC1` (stereo not shown) [Compound 57, 5-(3-(3-(4-(4-amino-3-(4-phenoxyphenyl)-1H-pyrazolo[3,4-d]pyrimidin-1-yl)piperidin-1-yl)-8-azabicyclo[3.2.1]octan-8-yl)azetidin-1-yl)-2-(2,6-dioxopiperidin-3-yl)isoindoline-1,3-dione], the “Mino Max inhi. %” value was found to be 99.2%.

As to `Nc1ncnc2c1c(-c1ccc(Oc3ccccc3)cc1)nn2C1CCN(C2CCN(C3CN(C4CCN(c5ccc6c(c5)C(=O)N(C5CCC(=O)NC5=O)C6=O)CC4)C3)C2)CC1` (stereo not shown) [Compound 16, 5-[4-[3-[3-[4-[4-amino-3-(4-phenoxyphenyl)pyrazolo[3,4-d]pyrimidin-1-yl]-1-piperidyl]pyrrolidin-1-yl]azetidin-1-yl]-1-piperidyl]-2-(2,6-dioxo-3-piperidyl)isoindoline-1,3-dione], the “Mino Max inhi. %” value is recorded as 99.7%.
